From publication PMC9858427, “Design, synthesis and biological evaluation of 2-((4-sulfamoylphenyl)amino)-pyrrolo[2,3-d]pyrimidine derivatives as CDK inhibitors” (Journal of Enzyme Inhibition and Medicinal Chemistry, 2023) come the findings set out here.

“Also recorded” adds a separate entry of the source.

The test system of one series is BxPC-3. Put plainly: MTT proliferation assay in BxPC-3 cells. Format: cell-based. The conditions noted are these: Homo sapiens, 72 h drug exposure. As for the experimental part:
The human pancreatic carcinoma MIA PaCa-2 was purchased from China Centre for Type Culture Collection, AsPC-1 and BxPC-3 cell Lines were purchased from Cell Centre of the Institute of Basic Medical Sciences, Chinese Academy of Medical Sciences and Peking Union Medical College. PANC-1 was kindly provided by Nankai Hospital (Tianjin, China). These cancer cell lines were cultured according to the manufacturer’s instruction.
(§1) Cells were planted in 96-well plates at a density of 3000–4000 cells per well and incubated at 37 °C in a humidified CO2 incubator for 24 h. Then 3-fold diluted concentrations of tested compound were added respectively which was dissolved by DMSO in the ratio of 1:1000. After indicated incubation period, MTT was added to each well and incubated for 4 h at 37 °C. Then, the supernatant was discarded gently, and the precipitate was dissolved in 100 µL of DMSO in each well. The absorbance (A) at 570 nm was detected with a microplate reader (Multiskan MK3; Thermo Fisher Scientific, MA, USA). Vehicle-treated cells were served as the control for the calculation of relative cell viability (%) of treated group at single concentration. IC50 value was calculated directly from the inhibition curve of serial dilution of test compound and was expressed as mean ± SD using the SPSS statistical software (SPSS17.0 Inc., Chicago, IL, USA).
Background: Tetrazolium assays rely on reduction of a dye to a coloured formazan, in cell work by metabolically active cells.

A further series concerns the target CDK4 (Homo sapiens, UniProt P11802). Put plainly: CDK4 kinase IC50, Mobility shift assay. Format: biochemical. As for the experimental part:
(§2) CDK kinase activity (IC50 values and inhibitory rate at single concentration) was measured using the kinase profiling services (Shanghai ChemPartner Co., Ltd). Compounds were sent to ChemPartner as a solution in DMSO at concentration of 10 mM.

For series [1], the system named is MIA PaCa-2 cells. As to the kind of experiment: Cell viability after CDK9 knockdown by siRNA. It counts as cell-based, human. The settings on record: siCDK9 50 nM; compound 0.2 µM, 72 h. On the procedure:
as §1
Specific siRNAs against CDK9 (Catelog ID: SIGS0004694-1) were purchased from RiboBio (Guangdong, China) together with a scrambled siRNA. […] Approximately 48 h after transfection, the cells were analysed for protein expression by Western blot. […]

In series [2] the test system is phosphorylation of Rb and RNA polymerase II, Mcl-1 and c-Myc protein. Put plainly: Immunoblots of CDK downstream proteins in MIA PaCa-2 cells. It counts as cell-based, human. The conditions noted are these: 6 h exposure. On the procedure: Harvested cells were lysed in 20 mmol/L Tris pH 7.7, 100 mmol/L NaCl, 20 mmol/L β-glycerophosphate, 5 mmol/L MgCl2, 1 mmol/L NaF, 0.1% Triton X-100, 5% glycerol plus freshly added 1 mmol/L DTT, 0.1 µmol/L okadaic acid, 1 mmol/L sodium vanadate, and cOmplete Mini Protease Inhibitor Tablets (Roche, #11836170001). For SDS-PAGE, equal amounts of protein/lane were loaded. After gel transfer onto PDV membrane, immunoblots were performed using the following antibodies: CDK9 (Cell Signalling Technology #C12FT; 1:1,000), RNA polymerase II (Abcam #ab5131; 1:1000), MCL-1 (Abcam #Y37; […] (Cell Signalling Technology #d2b12; 1:1,000), c-Myc (Abcam #YB69; 1:1000). Secondary antibodies were from Cell Signalling Technology (#7076 or #7074). ECL detection was performed.

Series [3] in a line: Body weight and H&E pathology of main organs in xenograft mice. Format: in vivo, BALB/C nude mice. As for the experimental part:
AsPC-1 (5 × 10^7) cells were injected subcutaneously into 5-week-old female BALB/C nude mice (Beijing Huafukang Bioscience CO. Inc, Beijing, China). After two weeks, mice were omogenizamised and treated with vehicle, gemcitabine (GCTB), or test compound. Blank solvent and test compound was administered by oral gavage (10 ml/kg) with once daily of five days and followed by 2 days off in each week, GCTB was given once a week by 50 mg/kg intraperitoneal injection. Mice were inspected daily for clinical signs, both tumour diameters and body weight were determined 3 times weekly. Tumour volumes were calculated according to the formula “tumor volume (V) = length × width^2/2”. Median TGI values were calculated as follows: TGI = 100 × [1-(Vtreated group at day20-Vtreated group at day1)/(Vvehicle group at day20-Vvehicle group at day1)]. Data were plotted as average with SD in the graphical representation of tumour growth. The p values obtained from the two-way ANOVA analysis. Meanwhile, main organs of mice were collected, formalin-fixed and paraffin-embedded for pathological analysis by H&E dyeing. For drug concentration determination, blood and tumour tissues were collected at indicated time after single administration. Standard curve of test compound was established in the acquisition mode of SIM using a SHIMADZU LC-MS instrument. Blood kept in anticoagulant tube coated with heparin sodium was centrifuged to provide the supernatant, which was followed by added with 3-fold acetonitrile to precipitate plasma protein. After centrifugation at 10 × 10^3 for 5 min, the supernatant was injected directedly into LC-MS instrument for quantification of drug concentration. As for tumour tissues, omogenizationation (Precellys Evolution) was done after weighed accurately and added with 3-fold saline. After centrifugation under same condition as plasma samples, supernatant was separated and injected into LC-MS for quantification.

For series [4], the system named is MIA PaCa-2 cells. Put plainly: Apoptosis analysis by PI and annexin V-FITC staining and flow cytometry. It counts as cell-based, human. The settings on record: 24 h treatment. As for the experimental part: MIA PaCa-2 cells were incubated with test compound at given concentration for indicated time in 6 well plates. The cells were collected and washed with cold PBS for two times. For cell cycle analysis, cells were fixed with 1 ml of 70% ethanol at −20 °C overnight then re-suspended with 400 µL binding buffer at density of 10^6 cells/mL, with PI staining for 30 min at room temperature. DNA contents were analysed by a BD Accuri C6 flow cytometry (BD Biosciences, Mountain View, CA, USA). For cell apoptosis analysis, after centrifugation and removal of the supernatants, cells were resuspended in 500 µL of 1 ×binding buffer which was then added to 5 µL of annexin V-FITC and incubated at room temperature for 10 min. After adding 10 µL of PI the cells were incubated at room temperature for another 10 min, and their fluorescence intensity evaluated by a BD Accuri C6 (BD Biosciences, Mountain View, CA, USA).

For a further series, the target named is CDK7 (Homo sapiens, UniProt P50613). Put plainly: CDK7 kinase IC50, Mobility shift assay. Format: biochemical. On the procedure: as §2
CDK7, sequence (P50613 whole entry): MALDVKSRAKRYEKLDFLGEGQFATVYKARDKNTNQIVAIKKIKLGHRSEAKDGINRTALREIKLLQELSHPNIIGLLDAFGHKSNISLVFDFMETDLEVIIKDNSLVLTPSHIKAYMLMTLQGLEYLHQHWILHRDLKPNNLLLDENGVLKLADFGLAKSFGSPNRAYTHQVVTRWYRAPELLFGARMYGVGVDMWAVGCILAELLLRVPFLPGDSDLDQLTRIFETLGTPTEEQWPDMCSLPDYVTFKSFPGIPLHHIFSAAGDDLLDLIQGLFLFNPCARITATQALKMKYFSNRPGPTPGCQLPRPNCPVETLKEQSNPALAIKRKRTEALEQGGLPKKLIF
CDK7, sequence (P51946 whole entry partner): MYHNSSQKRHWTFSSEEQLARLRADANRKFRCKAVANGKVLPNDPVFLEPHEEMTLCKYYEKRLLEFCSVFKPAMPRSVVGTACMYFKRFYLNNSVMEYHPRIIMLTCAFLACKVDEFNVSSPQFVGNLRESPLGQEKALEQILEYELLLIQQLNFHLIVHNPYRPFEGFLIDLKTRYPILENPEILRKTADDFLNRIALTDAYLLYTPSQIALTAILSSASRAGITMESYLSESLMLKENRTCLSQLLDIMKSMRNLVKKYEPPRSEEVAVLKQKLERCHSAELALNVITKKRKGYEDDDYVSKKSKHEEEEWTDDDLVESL
CDK7, sequence (P51948 whole entry partner): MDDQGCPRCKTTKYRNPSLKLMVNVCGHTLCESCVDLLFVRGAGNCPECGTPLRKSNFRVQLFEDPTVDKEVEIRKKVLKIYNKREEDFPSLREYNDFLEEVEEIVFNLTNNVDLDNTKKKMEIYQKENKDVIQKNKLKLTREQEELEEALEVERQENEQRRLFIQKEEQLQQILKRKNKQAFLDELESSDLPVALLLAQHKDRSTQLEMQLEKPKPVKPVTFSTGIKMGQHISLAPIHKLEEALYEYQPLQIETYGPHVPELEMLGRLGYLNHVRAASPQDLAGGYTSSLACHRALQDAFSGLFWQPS

CDK4, sequence (P11802 whole entry): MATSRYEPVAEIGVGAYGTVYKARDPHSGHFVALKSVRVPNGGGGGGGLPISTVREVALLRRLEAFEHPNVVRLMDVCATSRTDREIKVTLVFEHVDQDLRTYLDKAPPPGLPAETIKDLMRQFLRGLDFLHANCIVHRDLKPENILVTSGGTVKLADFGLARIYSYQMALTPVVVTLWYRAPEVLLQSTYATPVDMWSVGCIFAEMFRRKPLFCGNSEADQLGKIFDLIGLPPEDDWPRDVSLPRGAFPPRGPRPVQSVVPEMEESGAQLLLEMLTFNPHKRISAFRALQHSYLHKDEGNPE
CDK4, sequence (P30281 whole entry partner): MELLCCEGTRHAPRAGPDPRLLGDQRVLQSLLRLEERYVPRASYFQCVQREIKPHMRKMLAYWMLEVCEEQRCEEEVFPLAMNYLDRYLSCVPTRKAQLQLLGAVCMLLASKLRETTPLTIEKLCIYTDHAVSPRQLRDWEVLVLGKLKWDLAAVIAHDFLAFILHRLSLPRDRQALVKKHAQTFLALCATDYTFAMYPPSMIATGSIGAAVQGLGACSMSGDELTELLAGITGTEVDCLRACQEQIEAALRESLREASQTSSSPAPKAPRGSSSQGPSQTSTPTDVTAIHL

In general, IC50 refers to the concentration that gives 50% inhibition. Regarding `CN(C)C(=O)c1cc2cnc(Nc3ccc(S(N)(=O)=O)cc3)nc2n1C1CCCC1` [compound 2g, 7-Cyclopentyl-N,N-dimethyl-2-((4-sulfamoylphenyl)amino)-7H-pyrrolo[2,3-d]pyrimidine-6-carboxamide], the IC50 was 0.226 ± 0.065 µM in the series with BxPC-3, 12 nM on CDK4 and > 10000 nM on CDK7. In addition, the “sensitivity of MIA PaCa-2 cells to compound after downregulation of CDK9 by siRNA” value in the series on MIA PaCa-2 cells [1] is reported as “significantly decreased”. In series [2], the “Mcl-1 and c-Myc protein level” value is “down-regulation of Mcl-1 and c-Myc protein”. In series [2], the “phosphorylation of Rb and RNA polymerase II” value was “down-regulation of phosphorylated Rb protein; also recorded: inhibited the phosphorylation of Rb and RNA polymerase II”. The “pathological change in main organs (H&E)” value in series [3] (after 3-week treatment) is given as “no obvious pathological change”. The body weight change result in series [3] (high dose of 2g, first ten days of administration) is recorded as “obvious decrease of body weight”. The “number of late apoptotic cells” value in the series on MIA PaCa-2 cells [4] is “increased in a dose-dependent manner”.
